Test results from patent US8153773B2, “Synthesis and use of anti-reverse phosphorothioate analogs of the messenger RNA cap” (Board of Supervisors of Louisiana State University and …, priority 2007, dated 2012).

Tests used:
murine eIF4E (28-217) = biological target: T1, murine eIF4E (28-217) (Mus musculus, UniProt P63073); test: Binding affinities for eIF4E by fluorescence quenching; settings: murine eIF4E (28-217); for KAS: equilibrium association constant, fluorescence quenching; for ΔG°: binding free energy calculated from KAS
T1 construct: (28-217) to phosphorothioate cap analogs, as determined
Protocol: Binding affinities of S analogs for murine eIF4E were determined by fluorescence quenching. Fluorescence titration measurements were carried out on an LS-50B spectrofluorometer (Perkin Elmer Co.) in 50 mM HEPES/KOH (pH 7.2), 100 mM KCl, 0.5 mM EDTA, 1 mM DTT at 20.0±0.2° C. Aliquots of 1 μl increasing concentration of cap analogue solutions were added to 1.4 ml of […] solutions. Fluorescence intensities (excitation at 280 nm with 2.5 nm bandwidth and detection at 337 nm with 4 nm bandwidth and 290 nm cut-off filter) were corrected taking into account sample dilution and the inner filter effect. Equilibrium association constants (KAS) were determined by fitting the theoretical dependence of the fluorescence intensity on the total concentration of cap analogue to the experimental data points according to equation described previously (See A. Niedzwiecka et al., “Biophysical studies of eIF4E cap-binding protein: recognition of mRNA 5′ cap structure and synthetic fragments of eIF4G and 4E-BP1 proteins,” J. Mol. Biol., vol. 319, pp. 615-635 (2002)). The concentration of protein was fitted as a free parameter of equilibrium equation showing amount of “active” protein. The final KAS was calculated as a weighted average of three to ten independent titrations, with the weights taken as the reciprocals of the numerical standard deviations squared. Numerical nonlinear least-squares regression analysis was performed using ORGIN 6.0 (Microcal Software Inc., USA). The Gibbs free energy of binding was calculated from the KAS value according to the standard equation ΔG°=−RTlnKAS.

hDcp2 = hDcp2 (Homo sapiens, UniProt Q8IU60); test: In vitro RNA decapping assay with recombinant hDcp2; format: biochemical; settings: capped 32P-labeled short RNA, recombinant hDcp2, anion exchange HPLC (FIG. 6)
Protocol: Dcp2 activity was measured with capped 48-nt oligonucleotides as substrates, a truncated form of luciferase mRNA (48 nucleotides). GST-hDcp2 was expressed in Escherichia coli and purified as described by Z. Wang et al., “The hDcp2 protein is a mammalian mRNA decapping enzyme,” Proc. Natl. Acad. Sci. U.S.A., vol. 99, pp. 12663-12668 (2002). Capped oligonucleotides were first subjected to digestion with GST-hDcp2 at 37° C. for 2 h in decapping buffer (10 mM Tris-HCl, pH 7.5, 100 mM potassium acetate, 2 mM magnesium acetate, 0.5 mM MnCl2, 2 mM dithiothreitol, and 0.1 mM spermine). See C. Piccirillo et al., “Functional characterization of the mammalian mRNA decapping enzyme hDcp2,” RNA, vol. 9, pp. 1138-1147 (2003). The reaction mixture was then extracted once with an equal volume of phenol and twice with chloroform, and RNA was precipitated with ethanol. Products of the decapping reaction were further digested with a cocktail of ribonucleases (RiboShredder; Epicentre) at 37° C. for 1 h. The products were resolved by anion-exchange HPLC on a 4.6×250-mm Partisil 10SAX/25 column (Whatman). The gradient consisted of water for 1 min, a linear gradient to 112 mM KH2PO4, pH 4.5, for 20 min, a linear gradient of 112-450 mM KH2PO4 for 15 min, a linear gradient of 450 mM to 1.5 M KH2PO4 for 15 min, and isocratic elution at 1.5 M of KH2PO4 for 9 min, all at a flow rate 1 ml/min.
We tested oligonucleotides capped with either of S-ARCAs for hydrolysis by recombinant hDcp2 to test whether mRNA capped with the various diastereomers of m2^7,2′-OGpppsG and m2^7,2′-OGppspG would differ in their sensitivity to cleavage by Dcp1/Dcp2. See generally Z. Wang et al., “The hDcp2 protein is a mammalian mRNA decapping enzyme,” Proc. Natl. Acad. Sci. U.S.A., vol. 99, pp. 12663-12668 (2002), and Z. Wang et al., “An mRNA Stability Complex Functions with Poly(A)-Binding Protein To Stabilize mRNA In Vitro”, Mol. Cell. Biol., vol. 19, pp. 4552-4560 (1999). Cap analogs used were initially unlabeled, so to follow the products of the digestion reaction we synthesized capped oligonucleotides in the presence of [α-^32P]GTP and a DNA template in which G was the first ribonucleotide specified after the promoter. The oligonucleotides capped with either of the S-ARCAs were subjected to Dcp2 digestion in vitro, after which the products were further digested with a cocktail of ribonucleases (RiboShredder from Epicenter). Any nucleotide on the 5′ side of a G residue acquired a ^32P-labeled 3′-phosphate group after ribonuclease digestion by nearest-neighbor transfer. Anion exchange chromatography was then used to resolve the labeled 3′-nucleoside monophosphates (3′-NMP*), at internal positions in the RNA, from labeled 5′-terminal products (FIG. 6). The latter comprise p3 Gp* derived from uncapped transcripts and m2^7,2′-OGp3 Gp* (when m2^7,2′-OGp3G was used), or pGp* resulting from capped RNA resistant or nonresistant to enzymatic cleavage, respectively. All cap analogs used were ARCAs, which ensured that they were incorporated into RNA exclusively in the correct orientation. This further guaranteed that only one 5′-terminal product (m2^7,2′-OGp3 Gp*) was observed upon ribonuclease treatment. Uncapped RNA is not a substrate for Dcp2, which explains why p3 Gp* product was observed after Dcp2 digestion.
See E. Grudzien et al., “Differential inhibition of mRNA degradation pathways by novel cap analogs,” J. Biol. Chem., vol. 281, pp. 1857-1867 (2006).

DcpS [1] = biological target: T2, DcpS (Homo sapiens, UniProt Q96C86); test: Enzymatic hydrolysis by human DcpS; format: biochemical; parameters: key: the analogs assigned as resistant remained completely undigested under the applied conditions; the analogs assigned as hydrolyzed were hydrolyzed by DcpS with efficiency comparable to the respective unmodified parent compound; settings: conditions giving complete degradation of unmodified parent within 40-90 min, RP HPLC
T2 sequence (Q96C86 1-337): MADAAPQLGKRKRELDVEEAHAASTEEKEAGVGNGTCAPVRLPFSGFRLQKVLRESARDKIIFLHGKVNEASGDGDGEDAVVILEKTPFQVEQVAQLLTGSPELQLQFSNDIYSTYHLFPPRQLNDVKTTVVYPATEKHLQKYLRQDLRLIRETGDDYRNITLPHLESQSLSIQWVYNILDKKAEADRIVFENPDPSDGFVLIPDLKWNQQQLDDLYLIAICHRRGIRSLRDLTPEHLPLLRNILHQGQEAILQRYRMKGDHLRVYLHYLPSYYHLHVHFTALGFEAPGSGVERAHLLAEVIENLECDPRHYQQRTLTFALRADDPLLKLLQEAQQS
Protocol: (§1) Human and nematode DcpS were expressed in Escherichia coli according to the procedures described previously (L. S. Cohen et al., “Nematode m7 GpppG and m3(2,2,7)GpppG decapping: activities in Ascaris embryos and characterization of C. elegans scavenger DcpS,” RNA, vol. 10, pp. 1609-1624 (2004)). Both proteins were stored at −80° C. in 20 mM Tris buffer, pH 7.5, containing 50 mM KCl, 0.2 mM EDTA, 1 mM DTT, 0.5 mM PMSF, and 20% glycerol. An appropriate cap analog at 1 mM concentration was treated with 5.0 or 7.0 μl of DcpS (from human or C. elegans, respectively) in 500 μl of 50 mM TRIS buffer, pH=7.9, containing 20 mM of MgCl2 and 60 mM of (NH4)2SO4 at 37° C. for 60-90 min. Every 15-20 min a 100 μl sample was collected from the reaction mixture and deactivated by incubation in 90° C. for 3 min. Collected samples were analyzed without further treatment by analytical RP HPLC using a linear gradient of methanol in 0.1 M KH2PO4, pH=6.0, from 0-50% within 15 min and UV-detection at 260 nm.
(§2) The new series of S-analogs were subjected to in vitro enzymatic hydrolysis catalyzed by DcpS from both human and C. elegans sources. In all experiments, the corresponding unmodified cap analog was used as a positive control, i.e., m^7GpppG for non-ARCA S-analogs and m2^7,2′-OGpppG for S-ARCAs. The amount of DcpS enzyme was optimized to provide complete degradation of the control substrate within 40-90 min. The samples collected from reaction mixtures at various time intervals were analyzed by RP HPLC (as described in Materials and Methods).
(§3) In Table 4, cap analogs at 4 μM concentration were subjected to enzymatic digestion by DcpS in conditions leading to complete degradation of the unmodified parent compound (i.e. m^7GpppG for non-ARCA S-analogs and m2^7,2′-OGpppG for ARCAs) within 40-90 min. Samples collected from reaction mixtures at various time intervals were analysed by RP HPLC with UV detection at 260 nm as described in Materials and Methods. […] The result was unchanged even if the reaction time was extended to 24 h, various amounts of enzyme were used, and composition of the reaction buffer was modified.

DcpS [2] = biological target: T3, DcpS (Caenorhabditis elegans, UniProt G5EFS4); test: Enzymatic hydrolysis by C. elegans DcpS; format: biochemical; parameters: key: the analogs assigned as resistant remained completely undigested under the applied conditions; the analogs assigned as hydrolyzed were hydrolyzed by DcpS with efficiency comparable to the respective unmodified parent compound; settings: conditions giving complete degradation of unmodified parent within 40-90 min, RP HPLC
T3 sequence (G5EFS4 1-311): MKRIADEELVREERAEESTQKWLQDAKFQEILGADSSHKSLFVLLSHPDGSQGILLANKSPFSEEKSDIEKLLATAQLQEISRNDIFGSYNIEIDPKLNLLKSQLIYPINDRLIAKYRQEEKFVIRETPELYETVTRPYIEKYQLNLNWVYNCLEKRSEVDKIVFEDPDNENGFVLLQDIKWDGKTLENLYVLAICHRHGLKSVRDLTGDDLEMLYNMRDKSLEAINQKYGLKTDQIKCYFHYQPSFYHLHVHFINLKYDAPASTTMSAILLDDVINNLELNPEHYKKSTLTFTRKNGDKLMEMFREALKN
Protocol: as §1, §2, §3

T1 sequence (P63073 28-217): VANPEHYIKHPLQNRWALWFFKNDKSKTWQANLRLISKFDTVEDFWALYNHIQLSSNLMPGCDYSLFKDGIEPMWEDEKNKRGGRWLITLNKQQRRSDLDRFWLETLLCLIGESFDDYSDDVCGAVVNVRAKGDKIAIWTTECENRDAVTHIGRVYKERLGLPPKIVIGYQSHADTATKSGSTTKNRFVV

Row | Compound | KAS (murine eIF4E (28-217)) | hydrolysis of capped oligonucleotide by hDcp2 (hDcp2) | ΔG° (murine eIF4E (28-217)) | Resistance to enzymatic hydrolysis by DcpS (human) (DcpS [1]) | Resistance to enzymatic hydrolysis by DcpS (from C. elegans) (DcpS [2])
1 | CO[C@@H]1[C@H](O)[C@@H](COP(=O)(O)OP(=O)([O-])OP(=O)(O)OP(=O)(O)OC[C@H]2O[C@@H](n3cnc4c(=O)[nH]c(N)nc43)[C@H](O)[C@@H]2O)O[C@H]1n1c[n+](C)c2c(O)nc(N)nc21 [m^7,2′-OGppppG, reference compound] | 99.8 ± 6.0 µM⁻¹ | – | – | – | –
2 | m2^7,2′-OGpppsG | – | no increase in stability toward hDcp2 | – | – | –
3 | m2^7,2′-OGpsppG | – | no increase in stability toward hDcp2 | – | – | –
4 | m^7GpppsG (D1) [Compound 1a] | 23.6 ± 0.8 µM⁻¹ | – | -9.88 ± 0.02 kcal/mol | hydrolyzed | hydrolyzed
5 | m^7GpppsG (D2) [Compound 1b] | 13.1 ± 0.8 µM⁻¹ | – | -9.54 ± 0.03 kcal/mol | hydrolyzed | hydrolyzed
6 | m^7GppspG (D1) [Compound 2a] | 45.0 ± 1.1 µM⁻¹ | – | -10.26 ± 0.01 kcal/mol | hydrolyzed | hydrolyzed
7 | m^7GppspG (D2) [Compound 2b] | 23.0 ± 0.4 µM⁻¹ | – | -9.87 kcal/mol | hydrolyzed | hydrolyzed
8 | m^7GpsppG (D1) [Compound 3a] | – | – | – | resistant | resistant
9 | m^7GpsppG (D2) [Compound 3b] | – | – | – | resistant | resistant
